In the NIST ThermoML archive (doi:10.1021/je050151n):
Where “and” joins values, the source holds several entries; their conditions need not be identical. Equal entries are not always repeated.

What was measured:
[1] = 101.33 kPa, Liquid; for mass density: Vibrating tube method; for viscosity: Vibrating wire viscometry
[2] = refractive index (Na D-line) (dimensionless); conditions: 293.15 K; 101.33 kPa; Liquid; Standard Abbe refractometry

CC(C)CCCCCCCOC(=O)c1ccccc1C(=O)OCCCCCCCC(C)C
[1]
Conditions	mass density [kg/m3]	viscosity
283.16 K	973.52	267.36 mPa·s
288.26 K	969.85	176.04 mPa·s
293.21 K	966.38	123.07 mPa·s and 122.75 mPa·s
298.24 K	962.82	87.8 mPa·s
303.21 K	959.3	64.84 mPa·s
308.2 K	955.78	48.73 mPa·s
313.21 K	952.22	37.57 mPa·s

Conditions	refractive index
[2]	1.4845
